Patent EP4603105A1, “PHARMACEUTICAL COMPOSITION CONTAINING CYCLIC COMPOUND HAVING SELECTIVE KRAS INHIBITORY EFFECT AGAINST HRAS AND NRAS” (CHUGAI SEIYAKU KABUSHIKI KAISHA, priority 2022, dated 2024)
*1 amine or outer side, *2 acyl side, *3 side chain or, on linkers, in order; H or OH if unused. Where a SMILES comes first, the peptide text is derived from it. Bridges are numbered along the chain shown (N, C = ends). [ ]: non-standard residue; d: D form. The star is where a group is joined. hPhe(3,5-F2-4-CF3) = N[C@@H](CCc1cc(F)c(C(F)(F)F)c(F)c1)C(=O)O; hPhe(3-Cl-4-CF3) = N[C@@H](CCc1ccc(C(F)(F)F)c(Cl)c1)C(=O)O; X29 = C#CCN([C@@H](Cc1ccc(C(F)(F)F)cc1)C(=O)[*:2])[*:1]; NPrPhe(4-CF3) = CCCN[C@@H](Cc1ccc(C(F)(F)F)cc1)C(=O)O; NMeGly(cPent) = CN[C@H](C(=O)O)C1CCCC1; Ac4c(3,3-F2) = NC1(C(=O)O)CC(F)(F)C1; αMeI = CC[C@H](C)[C@](C)(N)C(=O)O; NMeD = CN[C@@H](CC(=O)O)C(=O)O; NMeL = CN[C@@H](CC(C)C)C(=O)O; Morpholide = C1CN(*)CCO1; NMeA = CN[C@@H](C)C(=O)O; Ac5c = NC1(C(=O)O)CCCC1; Aze = O=C(O)[C@@H]1CCN1; Sar = CNCC(=O)O

How the values were obtained:
[1] = target: GDP-bound NRAS wild-type protein (Homo sapiens, UniProt P01111); assay: Binding to NRAS by surface plasmon resonance (SPR), KD and KD ratio to KRAS
Method in brief: (§1)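 SPR, 30°C: Avi-biotin RAS·GDP captured via Biotin CAPture (~100–300 RU); running buffer HBS pH 7.4, 1 mM DTT, 10 mM MgCl2, 0.01% Tween 20, 10 µM GDP, 4% DMSO. Single-cycle kinetics, 100 µL/min, 75 s injections; 1:1 model → KD.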

[2] = target: HRAS wild-type protein (Homo sapiens, UniProt P01112); assay: Binding to HRAS by surface plasmon resonance (SPR), KD and KD ratio to KRAS
Method in brief: as §1

[3] = tested on: human lung cancer strain NCI-H441; assay type: cell-based
Method in brief: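 Proliferation was scored by […] measured after the reagent was added to cultures kept at 37°C in 5% carbon dioxide.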

[4] = ratio of KD for GDP-bound NRAS wild-type protein to KD for KRAS
[5] = ratio of KD for HRAS wild-type protein to KD for KRAS

GDP-bound NRAS wild-type protein, sequence (P01111 whole entry): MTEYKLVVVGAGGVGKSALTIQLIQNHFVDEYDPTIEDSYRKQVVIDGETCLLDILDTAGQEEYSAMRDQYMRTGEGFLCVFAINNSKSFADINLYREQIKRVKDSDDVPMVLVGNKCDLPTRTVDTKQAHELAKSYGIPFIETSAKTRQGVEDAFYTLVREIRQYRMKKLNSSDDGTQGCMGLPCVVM
HRAS wild-type protein, sequence (P01112 whole entry): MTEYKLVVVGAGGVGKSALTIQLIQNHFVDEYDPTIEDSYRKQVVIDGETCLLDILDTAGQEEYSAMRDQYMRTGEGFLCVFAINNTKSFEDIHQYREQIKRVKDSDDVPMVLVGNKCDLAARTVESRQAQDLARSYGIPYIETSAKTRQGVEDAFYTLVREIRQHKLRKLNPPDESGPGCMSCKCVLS

Structure (SMILES)	IC50 [3] [nM]	NRAS /KRAS [1, 4]	HRAS /KRAS [2, 5]	NRAS /KRAS ([1]; ratio of KD value for GDP-bound NRAS wild-type protein to KD value for KRAS (SPR))	HRAS /KRAS ([2]; ratio of KD value for HRAS wild-type protein to KD value for KRAS (SPR))	NRAS /KRAS ([1]; ratio of the KD value with respect to GDP-bound NRAS wild-type protein to the KD value with respect to KRAS)	HRAS /KRAS ([2]; ratio of the KD value with respect to HRAS wild-type protein to the KD value with respect to KRAS)
CCCN1C(=O)CN(C)C(=O)[C@@H]2CCN2C(=O)[C@H]([C@@H](C)CC)NC(=O)[C@H](CC(C)C)N(C)C(=O)C[C@@H](C(=O)N2CCOCC2)N(C)C(=O)[C@H](C2CCCC2)N(C)C(=O)[C@](C)([C@@H](C)CC)NC(=O)[C@@H]2CCCN2C(=O)[C@H](CCc2cc(F)c(C(F)(F)F)c(F)c2)NC(=O)CN(C)C(=O)[C@@H]1Cc1ccc(C(F)(F)F)cc1 [PP0774] ([NMeL]I[Aze][Sar][NPrPhe(4-CF3)][Sar][hPhe(3,5-F2-4-CF3)]P[αMeI][NMeGly(cPent)][NMeD]-Morpholide; lactam N-11)	478	B (a compound having 3 or more and less than 10 is denoted as B)	B (a compound having 3 or more and less than 10 is denoted as B)	–	–	–	–
CCCN1C(=O)CN(C)C(=O)CN(C)C(=O)[C@H]([C@@H](C)CC)NC(=O)[C@H](CC(C)C)N(C)C(=O)C[C@@H](C(=O)N(C)C)N(C)C(=O)[C@H](C2CCCC2)N(C)C(=O)C2(CC(F)(F)C2)NC(=O)[C@@H]2CCCN2C(=O)[C@H](CCc2cc(F)c(C(F)(F)F)c(F)c2)NC(=O)CN(C)C(=O)[C@@H]1Cc1ccc(C(F)(F)F)cc1 [PP0745] ([NMeL]I[Sar][Sar][NPrPhe(4-CF3)][Sar][hPhe(3,5-F2-4-CF3)]P[Ac4c(3,3-F2)][NMeGly(cPent)][NMeD]-NMe2; lactam N-11)	3.9	–	–	–	–	B (a compound having 3 or more and less than 10 is denoted as B)	C (A compound having a KD ratio of 0.1 or more and less than 3 is denoted as C)
C#CCN1C(=O)[C@@H]2CCN2C(=O)[C@H](C)N(C)C(=O)[C@H]([C@@H](C)CC)NC(=O)[C@H](CC(C)C)N(C)C(=O)C[C@@H](C(=O)N2CCOCC2)N(C)C(=O)[C@H](C2CCCC2)N(C)C(=O)C2(CCCC2)NC(=O)[C@@H]2CCCN2C(=O)[C@H](CCc2ccc(C(F)(F)F)c(Cl)c2)NC(=O)CN(C)C(=O)[C@@H]1Cc1ccc(C(F)(F)F)cc1 [PP0116] ([NMeL]I[NMeA][Aze][X29][Sar][hPhe(3-Cl-4-CF3)]P[Ac5c][NMeGly(cPent)][NMeD]-Morpholide; lactam N-11)	6.8	C (A compound having a KD ratio of 0.1 or more and less than 3 is denoted as C)	C (A compound having a KD ratio of 0.1 or more and less than 3 is denoted as C)	–	–	–	–
CCO[C@@H]1C[C@H]2C(=O)NC3(CCC3)C(=O)N(C)[C@@H](C3CCCC3)C(=O)N(CC)[C@H](C(=O)N3CCOCC3)CC(=O)N(C)[C@@H](CCOC)C(=O)N[C@@H]([C@@H](C)CC)C(=O)N(C)CC(=O)N(C)[C@H]3CCCCCN(C3=O)[C@@H](Cc3ccc(C(F)(F)F)cc3)C(=O)N(C)CC(=O)N[C@@H](CCc3cc(F)c(C(F)(F)F)c(F)c3)C(=O)N2C1 [PP0947]	597	A (a compound having 10 or more and less than 20 is denoted as A)	A (a compound having 10 or more and less than 20 is denoted as A)	–	–	–	–

Continued, in another order:

IC50 [3] [nM]	Structure (SMILES)	NRAS /KRAS [1, 4]	HRAS /KRAS [2, 5]	NRAS /KRAS ([1]; ratio of KD value for GDP-bound NRAS wild-type protein to KD value for KRAS (SPR))	HRAS /KRAS ([2]; ratio of KD value for HRAS wild-type protein to KD value for KRAS (SPR))	NRAS /KRAS ([1]; ratio of the KD value with respect to GDP-bound NRAS wild-type protein to the KD value with respect to KRAS)	HRAS /KRAS ([2]; ratio of the KD value with respect to HRAS wild-type protein to the KD value with respect to KRAS)
116	CCO[C@@H]1C[C@H]2C(=O)NC3(CC(F)(F)C3)C(=O)N(C)[C@@H](C(CC)CC)C(=O)N(C)[C@H](CC)CC(=O)N(C)[C@@H](CC3CC3)C(=O)N[C@@H]([C@@H](C)CC)C(=O)N(C)CC(=O)N(C)[C@H]3C/C=C\CCN(C3=O)[C@@H](Cc3ccc(C(F)(F)F)cc3)C(=O)N(C)CC(=O)N[C@@H](CCc3cc(F)c(C(F)(F)F)c(F)c3)C(=O)N2C1 [PP1632]	–	–	A (a compound having 10 or more and less than 20 is denoted as A)	A (a compound having 10 or more and less than 20 is denoted as A)	–	–
10.3	CCCN(C)C(=O)[C@@H]1CC(=O)N(C)[C@@H](CC)C(=O)N[C@@H]([C@@H](C)CC)C(=O)N(C)CC(=O)N(C)[C@H]2C/C=C\CCN(C2=O)[C@@H](Cc2ccc(C(F)(F)F)cc2)C(=O)N(C)CC(=O)N[C@@H](CCc2cc(F)c(C(F)(F)F)c(F)c2)C(=O)N2C[C@H](OCC3CC3)C[C@H]2C(=O)NC2(CCC2)C(=O)N(C)[C@@H](C2CCCC2)C(=O)N1C [PP2913]	A (a compound having 10 or more and less than 20 is denoted as A)	A (a compound having 10 or more and less than 20 is denoted as A)	–	–	–	–
4.2	CCO[C@@H]1C[C@H]2C(=O)NC3(CC(C)(C)C3)C(=O)N(C)[C@@H](C(CC)CC)C(=O)N(C)[C@H](C(=O)N(C)C)CC(=O)N(C)[C@H]3CCCCCc4ccc(cc4)C[C@@H](C(=O)N(C)CC(=O)N[C@@H](CCc4ccc(C(F)(F)F)c(OC)c4)C(=O)N2C1)N1CC/C=C\C[C@@H](C1=O)N(C)C(=O)CN(C)C(=O)[C@H]([C@@H](C)CC)NC3=O [PP3035]	AA (a compound having 20 or more is denoted as AA)	A (a compound having 10 or more and less than 20 is denoted as A)	–	–	–	–
